In US9522920B2, “Bromodomain inhibitors and uses thereof” (Constellation Pharmaceuticals, Inc., priority 2010, dated 2016):
Read-outs that look alike come from different tables or passages of the source.

Key:
[1] = system: IL-6 secretion; test: Cell-based IL-6 quantification assay (ELISA, Mesoscale) in LPS-stimulated THP-1 cells; settings: THP-1 cells, 16 h, read-out: IL6
Experimental: 100,000 THP-1 cells were seeded in RPMI1640-10% FBS in 96-well plates. LPS (E. Coli Invitrogen) in RPMI-10% FBS at a final concentration of 4 μg/mL was added to the wells and the cells are then incubated in the presence of various concentrations of compounds for 16 h. Plates are spun ([…], 5 min), an aliquot of 25 uL supernatant is transferred in to an ELISA plate (Mesoscale technology, MSD) and the detection of IL-6 is performed using manufacturer's instructions. The amount of cells in each well is assessed using CellTiter-Glo® (Promega). The ratio of ELISA value/CellTiter-Glo value is used to calculate the percent of inhibition of IL-6 secretion.

[2] = system: MYC mRNA; test: cMyc RNA quantification assay (QuantiGene) in Raji cells; type: cell-based; settings: 4 h
Experimental: MV4:11 (AML) or Raji (Burkitt's lymphoma) cells were seeded in a 96-well plate and incubated in the presence of various concentrations of compounds for 4 h. Relative mRNA levels were quantitated by using QuantiGene 2.0 assay (Affymetrix) according to the manufacturer's recommendation. Signals were detected by using an Envision plate reader (Perkin-Elmer). Biological duplicates were averaged and normalized to vehicle (DMSO) control to calculate percent MYC mRNA levels.

[3] = molecular target: T1, BRD4(BD1) (Homo sapiens, UniProt O60885); test: BRD4 AlphaLisa binding assay (Alphascreen)
T1 construct: His; made in house
Experimental: Specifically, in a 384 well ProxiPlate BRD4(BD1) (30 nM final) was combined with peptide (200 nM final) in 40 mM HEPES (pH 7.0), 40 mM NaCl, 1 mM DTT, 0.01% (w/v) BSA, and 0.008% (w/v) Brij-35 either in the presence of DMSO (final 1.2% DMSO) or compound dilution series in DMSO. After 20 minute incubation at room temperature Alpha streptavidin donor beads and AlphaLisa anti-Flag acceptor beads were added to a final concentration of 10 ug/mL each. After three hours equilibration plates were read on an Envision instrument and IC50s calculated using a four parameter non-linear curve fit.

[4] = Table 7, LPS 4 μg/mL, normalised to CellTiter-Glo
[5] = Table 7, Raji (Burkitt's lymphoma) cells
[6] = Table 6, BRD4(BD1) 30 nM, H4-tetraacetyl peptide 200 nM, read-out: BRD4 Alphascreen IC50
[7] = Homo sapiens, THP-1, 16 h, Table 7, LPS 4 μg/mL, normalised to CellTiter-Glo
[8] = Homo sapiens, Table 7, Raji (Burkitt's lymphoma) cells
[9] = Homo sapiens, THP-1, 16 h, Table 14, LPS
[10] = Table 14, BRD4 AlphaLisa Binding Assay, read-out: Alpha screen

SMILES | IC50 [3, 6] [nM] | IC50 [2, 8] [nM] | IC50 [1, 7] [nM] | also measured
Cc1noc2c1-c1ccc(Cl)cc1C(c1ccc(C(F)(F)F)cc1)=N[C@H]2CC(N)=O [Compound 201] | – | – | – | IC50 [1, 9]: < 500 nM; IC50 ([2]; Homo sapiens, Table 14, Raji cells): 500 to 1000 nM; IC50 [3, 10]: < 500 nM
CNc1nccc2c1C(c1ccc(Cl)cc1)=NCc1onc(C)c1-2 [Compound 173, 6-(4-Chlorophenyl)-N,1-dimethyl-4H-isoxazolo[5,4-c]pyrido[4,3-e]azepin-7-amine] | < 500 | < 500 | < 500 | –
Cc1noc2c1-c1sc(C)c(C)c1C(c1ccc(Cl)cc1)=N[C@H]2Cc1nccs1 [Compound 188, (6S)-4-(4-chlorophenyl)-2,3,9-trimethyl-6-(thiazol-2-ylmethyl)-6H-isoxazolo[5,4-c]thieno[2,3-e]azepine] | < 500 | > 1000 | < 500 | –
CCOC(=O)NC1N=C(c2ccc(Cl)cc2)c2ccccc2-c2c1noc2C (stereo not drawn) [Compound 155, Ethyl (6-(4-chlorophenyl)-1-methyl-4H-benzo[c]isoxazolo[4,3-e]azepin-4-yl)carbamate] | < 500 | < 500 | 500 to 1000 | –
Cc1noc2c1-c1sc(C)c(C)c1C(c1ccc(Cl)cn1)=NC2CC(N)=O (stereo not drawn) [Compound 103] | < 500 | < 500 | < 500 | –
Cc1noc2c1-c1sc(C)c(C)c1C(c1ccccc1)=NC2CC(N)=O (stereo not drawn) [Compound 108] | < 500 | < 500 | < 500 | –
Cc1noc2c1-c1ccnc(N(C)C)c1C(c1ccc(Cl)cc1)=NC2 [Compound 175, 6-(4-Chlorophenyl)-N,N,1-trimethyl-4H-isoxazolo[5,4-c]pyrido[4,3-e]azepin-7-amine] | < 500 | > 1000 | 500 to 1000 | –
Cc1noc2c1-c1ccn(-c3ccccc3)c(=O)c1C(c1ccc(Cl)cc1)=NC2 [Compound 179, 6-(4-Chlorophenyl)-1-methyl-8-phenyl-4H-isoxazolo[5,4-c]pyrido[4,3-e]azepin-7(8H)-one] | > 1000 | – | > 1000 | –
Cc1noc2c1-c1sc(C)c(C)c1C(c1cccc(C(N)=O)c1)=NC2CC(N)=O (stereo not drawn) [Compound 117] | < 500 | – | < 500 | –
CCNC(=O)NC1N=C(c2ccc(C#N)cc2)c2ccccc2-c2c(C)noc21 (stereo not drawn) [compound 261] | – | – | – | IC50 ([1]; Table 14, LPS): < 500 nM; IC50 [3, 10]: < 500 nM
Cc1noc2c1-c1cc[nH]c(=O)c1C(c1ccc(Cl)cc1)=NC2 [Compound 176, 6-(4-Chlorophenyl)-1-methyl-4H-isoxazolo[5,4-c]pyrido[4,3-e]azepin-7(8H)-one] | > 1000 | – | > 1000 | –
Cc1noc2c1-c1sc(C)c(C)c1C(c1cncnc1)=NC2CC(N)=O (stereo not drawn) [Compound 105] | > 1000 | – | > 1000 | –
CC(=O)NC[C@@H]1N=C(c2ccc(Cl)cc2)c2c(sc(C)c2C)-c2c(C)noc21 [Compound 182, N-(((6S)-4-(4-Chlorophenyl)-2,3,9-trimethyl-6H-isoxazolo[5,4-c]thieno[2,3-e]azepin-6-yl)methyl)acetamide] | < 500 | – | 500 to 1000 | –
Cc1noc2c1-c1sc(C)c(C)c1C(c1cc[nH]n1)=NC2CC(N)=O (stereo not drawn) [Compound 100] | < 500 | – | 500 to 1000 | –
Cc1noc2c1-c1sc(C)c(C)c1C(OC(C)C)=N[C@H]2CC(N)=O [Compound 193] | – | – | – | IC50 ([1]; Table 14, LPS): > 1000 nM; IC50 [3, 10]: 500 to 1000 nM
CC(=O)NC1N=C(c2ccc(C#N)cc2)c2ccccc2-c2c(C)noc21 (stereo not drawn) [Compound 263, N-(6-(4-cyanophenyl)-1-methyl-4,1-benzo[c]isoxazolo[4,5-e]azepin-4-yl)acetamide] | – | – | – | IC50 [1, 9]: < 500 nM; IC50 [3, 10]: < 500 nM

Further lines, with some results ahead:

IC50 [3, 6] [nM] | IC50 [2, 8] [nM] | SMILES | IC50 [1, 7] [nM] | also measured
< 500 | – | COc1ccc(C2=N[C@@H](CC(N)=O)c3onc(C)c3-c3cccc(C)c32)cc1 [Compound 135] | – | IC50 [1, 4]: < 500 nM; IC50 [2, 5]: < 500 nM
< 500 | < 500 | Cc1cc(Cl)ccc1C1=NC(CC(N)=O)c2onc(C)c2-c2sc(C)c(C)c21 (stereo not drawn) [Compound 112] | < 500 | –
< 500 | 500 to 1000 | Cc1noc2c1-c1cccc(Cl)c1C(c1ccncc1)=N[C@H]2CC(N)=O [Compound 137] | < 500 | –
< 500 | – | Cc1noc2c1-c1ccc(Cl)cc1C(c1ccc(C#N)cc1)=N[C@H]2CC(N)=O [Compound 142] | – | IC50 [1, 4]: < 500 nM; IC50 [2, 5]: 500 to 1000 nM
